The record followed here is patent US10442803B2, “Tricyclic heterocycles as bet protein inhibitors” (Incyte Corporation, priority 2013, dated 2019).

SMILES strings stand for the structures. Where a name gives a salt, the structure may show the parent alone.

The target in test [1] is BRD4-BD2 (Homo sapiens (Human), UniProt O60885). Nature of the test: BRD4 AlphaScreen assay (BRD4-BD2). Type of test: binding. Conditions: H4Ac4 peptide, read-out: BRD4 BD-2 enzyme IC50. As for the experimental part:
(§1) BRD4-BD1 and BRD4-BD2 assays were conducted in white 384-well polystyrene plate in a final volume of 20 μL for BD1 and 40 μL for BD2. Inhibitors were first serially diluted in DMSO and added to the plate wells before the addition of other reaction components. The final concentration of DMSO in the assay was 1.25% (BD1) and 0.83% (BD2). The assays were carried out at room temperature for 75 min. in the assay buffer (50 mM HEPES, pH 7.4, 100 mM NaCl, 0.05% CHAPS, 0.01% BSA), containing 50 nM Biotin-labeled tetra-acetylated histone H4 peptide (H4Ac4), 3.8 nM (BRD4-BD1, BPS Bioscience #31040) or 20 nM (BRD4-BD2, BPS Bioscience #31041). The reaction followed by the addition of 20 μL of assay buffer supplemented with Streptavidin donor beads (PerkinElmer 6760002) and GSH Acceptor beads (PerkinElmer-AL109C) at 4 μg/mL under reduced light. After plate sealing, the plate was incubated in the dark at room temperature for 75 min. before reading on a PHERAstar FS plate reader (BMG Labtech). IC50 determination was performed by fitting the curve of percent control activity versus the log of the inhibitor concentration using the GraphPad Prism 5.0 software.
In general terms: Alpha assays give light when donor and acceptor beads are brought close together.

Test [2] concerns the target BRD4-BD1 (Homo sapiens (Human), UniProt O60885). Nature of the test: BRD4 AlphaScreen assay (BRD4-BD1). Type of test: binding. Conditions: H4Ac4 peptide, read-out: BRD4 BD-1 enzyme IC50. As for the experimental part:
as §1

Test [3] relates to KMS.12.BM cells. Nature of the test: KMS.12.BM cell viability assay. The format is cell-based. Conditions: 72 h; KMS.12.BM human myeloma cells, 3 days, Cell Titer-GLO ATP quantitation; read-out: KMS cellular IC50. In outline:
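IC50 derived from luminescent ATP quantitation (Cell Titer-GLO) of viable cells after 3-day compound treatment. KMS.12.BM human myeloma line seeded at 5000 cells/well in RPMI with 10% FBS.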
(In general: ATP-based viability assays read luminescence as a measure of living cells.)

As usually defined, the IC50 is the concentration needed to halve the response being measured. Take `Cc1cc2c(ccc3nnc(C)n32)n1[C@@H](C)c1ccccc1` (single isomer, unassigned) [Example 5, 1,7-dimethyl-6-(1-phenylethyl)-6H-pyrrolo[2,3-e][1,2,4]triazolo[4,3-a]pyridine]: the figures for the IC50 in test [1], in test [2] and in test [3] were not above 0.1 µM, 0.1 to 1 µM and 1 to 10 µM, respectively.
Consider `Cc1nnc2ccc3c(cc(-c4ccn(C5CN(S(C)(=O)=O)C5)n4)n3Cc3cccc(Cl)c3)n12` [Example 109, 6-(3-chlorobenzyl)-1-methyl-7-{1-[1-(methylsulfonyl)azetidin-3-yl]-1H-pyrazol-3-yl}-6H-pyrrolo[2,3-e][1,2,4]triazolo[4,3-a]pyridine], for which the concentration for half-maximal inhibition (IC50) was not above 0.1 µM in test [1] and not above 1 µM in test [3].
In the case of `CCN1CC(CC#N)(n2ccc(-c3cc4c(ccc5nnc(C)n54)n3Cc3ccccc3)n2)C1` [Example 110, {3-[3-(6-benzyl-1-methyl-6H-pyrrolo[2,3-e][1,2,4]triazolo[4,3-a]pyridin-7-yl)-1H-pyrazol-1-yl]-1-ethylazetidin-3-yl}acetonitrile], the IC50 is not above 0.1 µM in test [2] and not above 1 µM in test [3].
Regarding `Cc1nnc2ccc3c(cc(-c4ccn(C5(CC#N)CN(C(C)C)C5)n4)n3Cc3ccccc3)n12` [Example 111, {3-[3-(6-benzyl-1-methyl-6H-pyrrolo[2,3-e][1,2,4]triazolo[4,3-a]pyridin-7-yl)-1H-pyrazol-1-yl]-1-isopropylazetidin-3-yl}acetonitrile], the IC50 in test [2] is not above 0.1 µM; in test [3], not above 1 µM.
Consider `Cc1nnc2ccc3c(cc(-c4nnco4)n3Cc3cc(Cl)cc(CN4CC(O)C4)c3)n12` [Example 139, 1-(3-Chloro-5-{[1-methyl-7-(1,3,4-oxadiazol-2-yl)-6H-pyrrolo[2,3-e][1,2,4]triazolo[4,3-a]pyridin-6-yl]methyl}benzyl)azetidin-3-ol], for which the IC50 in test [1] was not above 0.1 µM; in test [2], not above 0.1 µM; in test [3], 1 to 10 µM.
As to `Cc1nnc2ccc3c(cc(-c4nnco4)n3Cc3cc(Cl)cc(CN4CCC4)c3)n12` [Example 140, 6-[3-(Azetidin-1-ylmethyl)-5-chlorobenzyl]-1-methyl-7-(1,3,4-oxadiazol-2-yl)-6H-pyrrolo[2,3-e][1,2,4]triazolo[4,3-a]pyridine], the values for the half-maximal inhibitory concentration (IC50) in test [1] and in test [3] were […] and not above 1 µM, respectively.
Turning to `Cc1nnc2ccc3c(cc(-c4nnco4)n3Cc3cccc(Cl)c3)n12` [Example 141, 6-(3-Chlorobenzyl)-1-methyl-7-(1,3,4-oxadiazol-2-yl)-6H-pyrrolo[2,3-e][1,2,4]triazolo[4,3-a]pyridine trifluoroacetate salt], the values for the IC50 in test [1], in test [2] and in test [3] were not above 0.1 µM, not above 0.1 µM and not above 1 µM, respectively.
With `Cc1nnc2ccc3c(cc(-c4ccn(C5CNC5)n4)n3Cc3cccc(Cl)c3)n12` [Example 156, 7-(1-azetidin-3-yl-1H-pyrazol-3-yl)-6-(3-chlorobenzyl)-1-methyl-6H-pyrrolo[2,3-e][1,2,4]triazolo[4,3-a]pyridine bis(trifluoroacetate) salt], the IC50 is not above 0.1 µM in test [1], not above 0.1 µM in test [2] and not above 1 µM in test [3].
For the molecule `Cc1nnc2ccc3c(cc(-c4ccn(C5(CC#N)CNC5)n4)n3Cc3cccc(Cl)c3)n12` [Example 157, (3-{3-[6-(3-Chlorobenzyl)-1-methyl-6H-pyrrolo[2,3-e][1,2,4]triazolo[4,3-a]pyridin-7-yl]-1H-pyrazol-1-yl}azetidin-3-yl)acetonitrile bis(trifluoroacetate) salt], the figures for the IC50 in test [1], in test [2] and in test [3] were not above 0.1 µM, not above 0.1 µM and not above 1 µM, respectively.
Consider `Cc1nc2c(cc(NC3CCN(C)CC3)c3nnc(C)n32)n1Cc1ccccc1` [Example 223, 3-Benzyl-2,8-dimethyl-N-(1-methylpiperidin-4-yl)-3H-imidazo[4,5-e][1,2,4]triazolo[4,3-a]pyridin-5-amine], for which the IC50 in test [2] was not above 0.1 µM; in test [3], not above 1 µM.
